Experiments:
[1] = blood-brain barrier permeability by contrast-enhanced T1-weighted MRI; assay type: in vivo, rat; details: given as 300 mg/kg NAC plus 300 mg/kg HPN-07 i.p., MRI seven days after initial drug administration
Experimental: Male Long-Evans pigmented rats (with body weights between 360 and 400 g, Harlan Laboratories, Indianapolis, Ind.) were injected intraperitoneally with a combination of 300 mg/kg of NAC plus 300 mg/kg of HPN-07, which were both dissolved in 5 ml/kg of physiological saline solution. […] Drug or saline was administered once on the first day and then twice a day for the following two days.
Seven days after the initial drug administration magnetic resonance imaging (MRI) was used to detect the disruption of the blood-brain barrier (BBB). Contrast enhancement noted on post-contrast T1-weighted MRI after injection of contrast agent (Magnevist=GdDTPA) is indicative of blood-brain barrier disruption. The hyper intensity on the T1-weighted images is resulting from leakage of the gadolinium based contrast agent injected at the baseline.
The MRI parameters and image scale factor were kept constant for all T1-weighted images. The images were evaluated both visually and by region-of-interest (ROI) measurement. ROT measurements were obtained at the time-points (before and after injection of contrast material on T1-weighted images) brain.

doublecortin = doublecortin immunostaining of hippocampus and entorhinal cortex after noise exposure; assay type: in vivo, chinchilla; details: for level of doublecortin staining in the entorhinal cortex: HPN-07 300 mg/kg i.p.
Experimental: In this Example, three-5 year old chinchilla were freedom divided into 3 groups (6 chinchilla at each time point in each group). Chinchilla in noise exposure and noise plus treatment groups were exposed to 105 dB SPL Octave band noise centered at 4 kHz for 6 hours. Chinchilla in the noise plus treatment group were received HPN-07 treatment (300 mg/kg, i.p) started 4 hours after noise exposure, and then twice a day for the following 2 days. Chinchilla in the normal control and the noise exposed only groups were received carrier solutions (i.p.). Chinchilla were euthanized and perfused with 4% paraformaldehyde in PBS 21 days and 6 months after noise exposure. Brains were dissected out and post-fixed in the fixative for one week. The brains were Cryosected at 30 μm. Goat anti-doublecortin (1:100) was used to label neural precursor cells. Images were taken from CA1 regions of hippocampus and the entorhinal cortex with a light microscope. Doublecortin staining reflects neurogenerosis in the brain after neuron damage and death after noise exposure.

[2] = stated as known; cited from earlier work

| Compound | blood-brain barrier permeability (% change in ROI signal intensity after Magnevist) [1] | blood-brain barrier permeability (% change in ROI signal intensity after Magnevist) ([1]; listed as 2,4-disulfonyl PBN) | level of doublecortin staining in the entorhinal cortex (doublecortin; 6 months post noise exposure) | density of doublecortin staining in the hippocampus (doublecortin; 6 months post noise exposure, HPN-07 300 mg/kg i.p. from 4 hours after noise) | level of doublecortin staining in the entorhinal cortex (doublecortin; 21 days post noise exposure) | blood-brain barrier permeability [2] |
| --- | --- | --- | --- | --- | --- | --- |
| 2,4-disulfonyl α-phenyl tertiary butyl nitrone [HPN-07] | effectively increases blood-brain barrier permeability | unexpectedly increases blood brain permeability | decreases the level of doubtecortin staining | comparable to the control subjects | decreases the level of doubtecortin staining |  |
| CC(=O)N[C@@H](CS)C(=O)O [NAC, N-acetylcysteine] |  |  |  |  |  | known to not increase blood-brain barrier permeability |
